Reference: ChEMBL document CHEMBL1201862, “PubChem BioAssay data set” (2004)
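1) Cells in 96-well plates. 2) Compound, 48 h, 5 concentrations. 3) Linear interpolation between surrounding doses. 4) Unreached endpoint = highest concentration. The concentration for 50% growth inhibition is given as GI50.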 Calls of active or inactive are those of the source. No stated cut-off is given here; in the data, active = GI50 up to about 1.1 µM and inactive = higher.

Key:
Test in all cases: NCI tumour cell line growth inhibition, 48 h
HOP-18 = system: HOP-18
DMS-114 = system: DMS-114
SNB-78 = system: SNB-78
DMS-273 = system: DMS-273
KM-20L2 = system: KM-20L2
XF498 = system: XF498
RXF 631 = system: RXF 631
LXFL 529 = system: LXFL 529
DLD-1 = system: DLD-1

Measured: GI50

CCCCCCCC/C=C1\CCC(CN(C)C)C1=O (stereo not drawn)
inactive: HOP-18 19.5 µM | DMS-114 4.01 µM | SNB-78 7.45 µM | DMS-273 2.43 µM | KM-20L2 7.6 µM | XF498 6.22 µM | RXF 631 5.64 µM | LXFL 529 1.61 µM | DLD-1 2.16 µM

CS(=O)(=O)c1cc(=O)c2ccccc2s1
inactive: HOP-18 3.85 µM | DMS-114 4.82 µM | SNB-78 4.99 µM | DMS-273 8.77 µM | KM-20L2 11.7 µM | XF498 2.14 µM | RXF 631 11 µM | LXFL 529 1.63 µM | DLD-1 1.91 µM
